These results are taken from the supplement of paper PMC11208160.
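Note: IS621 recombinase and bridge RNA in Escherichia coli cells.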

The nature of this data set: recombinant barcode read abundance after kanamycin selection (control-corrected) (log10(CPM+1)); higher = more efficient recombination; sequences stand for … in AGTGCAGAGAAAATCGGCCAGTTTTCTCTGCCTGCAGTCCGCATGCCGT…AGATTTATGCAGCGGACTGCCTTTCTCCCAAAGTGATAAACCGGACAGTATCATGGACCGGTTTTCCCGGTAATCCGTATTTGCAAGGTTGGTTTCACT; site = the 11-nt target. The essentials: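 Each value is log10(CPM+1). It describes recombination efficiency, taken as averaged, control-corrected counts per million of barcodes at recombinant junctions. The pooled E. coli library paired targets with IS621 bridge RNA target-binding loops, was co-electroporated with a donor plasmid, and was plated twice on chloramphenicol/ampicillin LB agar (control) and twice on chloramphenicol/ampicillin/kanamycin containing 0.1 mM IPTG.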
“CGGCACACTTGGGTTCTAACCTGTTGCGG (site CGGAACACTCC)”: the “recombinant barcode read abundance (log10)” value amounted to 0.06.

“CGGCACACTTGGGTTCTAACCTGTTGCGG (site CGGCACACTCC)”: the “recombinant barcode read abundance (log10)” value was 1.86.

“CGGCACACTTGGGTTCTAACCTGTTGCGG (site CGGGACACTCC)”: the “recombinant barcode read abundance (log10)” value is 0.143.

Take “CGGCACACTTGGGTTCTAACCTGTTGCGG (site CGGTACACTCC)”: the “recombinant barcode read abundance (log10)” value was 0.582.

As for “CGGCCACCTTGGGTTCTAACCTGTTGCTT (site AATGGGGCTCT)”, the “recombinant barcode read abundance (log10)” value came to 0.0969.

Take “CGGCCACCTTGGGTTCTAACCTGTTGCTT (site CGGCCACCTAA)”: the “recombinant barcode read abundance (log10)” value amounted to 1.02.

In the case of “CGGCCCACTTGGGTTCTAACCTGTTGCGG (site CGGCCCACTCC)”, the “recombinant barcode read abundance (log10)” value turned out to be 2.35.

Regarding “CGGCCCACTTGGGTTCTAACCTGTTGCGG (site CGGGCCACTAC)”, the “recombinant barcode read abundance (log10)” value stood at 0.033.

With “CGGCCGCCTTGGGTTCTAACCTGTTGCTT (site CGGCCGCCTAA)”, the “recombinant barcode read abundance (log10)” value turned out to be 0.69.

As to “CGGCCGCCTTGGGTTCTAACCTGTTGCTT (site GGGTCGCCTAA)”, the “recombinant barcode read abundance (log10)” value was 0.0563.

As for “CGGCTCCCTTGGGTTCTAACCTGTTGCTT (site CGGCTCCCTAA)”, the “recombinant barcode read abundance (log10)” value was found to be 1.24.

Consider “CGGCTCCCTTGGGTTCTAACCTGTTGCTT (site GACACAACTTG)”, for which the “recombinant barcode read abundance (log10)” value came to 0.147.

For the sequence “CGGGCCACTTGGGTTCTAACCTGTTGCCT (site CAGGCCACTAG)”, the “recombinant barcode read abundance (log10)” value is 0.198.

Turning to “CGGGCCACTTGGGTTCTAACCTGTTGCCT (site CCGGCCACTAG)”, the “recombinant barcode read abundance (log10)” value came out at 0.0207.

For the sequence “CGGGCCACTTGGGTTCTAACCTGTTGCCT (site CGGGCCACTAG)”, the “recombinant barcode read abundance (log10)” value came to 0.442.

As for “CGGGCCACTTGGGTTCTAACCTGTTGCCT (site CTGGCCACTAG)”, the “recombinant barcode read abundance (log10)” value worked out at 0.177.

In the case of “CGGGCCTCTTGGGTTCTAACCTGTTGCTG (site CGGGCCTCTAA)”, the “recombinant barcode read abundance (log10)” value was found to be 0.504.

In the case of “CGGGCCTCTTGGGTTCTAACCTGTTGCTG (site CGGGCCTCTCA)”, the “recombinant barcode read abundance (log10)” value is 2.82.

As for “CGGGCCTCTTGGGTTCTAACCTGTTGCTG (site CGGGCCTCTGA)”, the “recombinant barcode read abundance (log10)” value was found to be 0.217.

In the case of “CGGGCCTCTTGGGTTCTAACCTGTTGCTG (site CGGGCCTCTTA)”, the “recombinant barcode read abundance (log10)” value was 0.872.

On to “CGGGCGTCTTGGGTTCTAACCTGTTGCTA (site ATTCGAGCTAT)”, for which the “recombinant barcode read abundance (log10)” value worked out at 0.116.

Take “CGGGCGTCTTGGGTTCTAACCTGTTGCTA (site CGGGCGTCTTA)”: the “recombinant barcode read abundance (log10)” value worked out at 1.17.

For “CGGGCTACTTGGGTTCTAACCTGTTGCGG (site CGGGCTACTCC)”, the “recombinant barcode read abundance (log10)” value turned out to be 3.05.

As to “CGGGCTACTTGGGTTCTAACCTGTTGCGG (site GGGACTACTCC)”, the “recombinant barcode read abundance (log10)” value was 0.0963.

Turning to “CGGGCTACTTGGGTTCTAACCTGTTGCTA (site CGGGCTACTTA)”, the “recombinant barcode read abundance (log10)” value was 1.79.

Consider “CGGGCTACTTGGGTTCTAACCTGTTGCTA (site GGGGCAACTTA)”, for which the “recombinant barcode read abundance (log10)” value was 0.209.

Take “CGGGGCCCTTGGGTTCTAACCTGTTGCTT (site CGGGGCCCTAA)”: the “recombinant barcode read abundance (log10)” value is 2.6.

Take “CGGGGCCCTTGGGTTCTAACCTGTTGCTT (site GACTAGTCTCT)”: the “recombinant barcode read abundance (log10)” value came out at 0.167.

Regarding “CGGGGTCCTTGGGTTCTAACCTGTTGCTA (site CGGAGTCCTTA)”, the “recombinant barcode read abundance (log10)” value worked out at 1.68.

Regarding “CGGGGTCCTTGGGTTCTAACCTGTTGCTA (site CGGCGTCCTTA)”, the “recombinant barcode read abundance (log10)” value was determined as 0.41.

Consider “CGGGGTCCTTGGGTTCTAACCTGTTGCTA (site CGGGGTCCTTA)”, for which the “recombinant barcode read abundance (log10)” value was 2.5.

Consider “CGGGGTCCTTGGGTTCTAACCTGTTGCTA (site CGGTGTCCTTA)”, for which the “recombinant barcode read abundance (log10)” value is 0.35.

“CGGTCATCTTGGGTTCTAACCTGTTGCCT (site CGATCATCTAG)”: the “recombinant barcode read abundance (log10)” value was 0.331.

Consider “CGGTCATCTTGGGTTCTAACCTGTTGCCT (site CGCTCATCTAG)”, for which the “recombinant barcode read abundance (log10)” value was determined as 0.171.

In the case of “CGGTCATCTTGGGTTCTAACCTGTTGCCT (site CGGTCATCTAG)”, the “recombinant barcode read abundance (log10)” value is 0.537.

On to “CGGTCATCTTGGGTTCTAACCTGTTGCCT (site CGTTCATCTAG)”, for which the “recombinant barcode read abundance (log10)” value came to 0.417.

As to “CGTAAACCTTGGGTTCTAACCTGTTGCGT (site CGTAAACCTAC)”, the “recombinant barcode read abundance (log10)” value is 0.451.

With “CGTAAACCTTGGGTTCTAACCTGTTGCGT (site CGTCAACCTAC)”, the “recombinant barcode read abundance (log10)” value came out at 0.0732.

As for “CGTAAACCTTGGGTTCTAACCTGTTGCGT (site CGTGAACCTAC)”, the “recombinant barcode read abundance (log10)” value turned out to be 0.159.

For “CGTAAACCTTGGGTTCTAACCTGTTGCGT (site CGTTAACCTAC)”, the “recombinant barcode read abundance (log10)” value was determined as 0.393.

With “CGTAAGACTTGGGTTCTAACCTGTTGCCT (site CGTAAGACTAG)”, the “recombinant barcode read abundance (log10)” value is 0.489.

As to “CGTAAGACTTGGGTTCTAACCTGTTGCCT (site CGTCAGACTAG)”, the “recombinant barcode read abundance (log10)” value stood at 0.265.

Consider “CGTAAGACTTGGGTTCTAACCTGTTGCCT (site CGTGAGACTAG)”, for which the “recombinant barcode read abundance (log10)” value is 0.0483.

As for “CGTAAGACTTGGGTTCTAACCTGTTGCCT (site CGTTAGACTAG)”, the “recombinant barcode read abundance (log10)” value came out at 0.0104.

As for “CGTACCGCTTGGGTTCTAACCTGTTGCCT (site CCTACCGCTAA)”, the “recombinant barcode read abundance (log10)” value worked out at 0.153.

“CGTACCGCTTGGGTTCTAACCTGTTGCCT (site CGTACCGCTAG)”: the “recombinant barcode read abundance (log10)” value stood at 0.496.

On to “CGTACCTCTTGGGTTCTAACCTGTTGCTC (site CGTACCTCTAA)”, for which the “recombinant barcode read abundance (log10)” value worked out at 0.056.

With “CGTACCTCTTGGGTTCTAACCTGTTGCTC (site CGTACCTCTCA)”, the “recombinant barcode read abundance (log10)” value was found to be 0.0772.

As to “CGTACCTCTTGGGTTCTAACCTGTTGCTC (site CGTACCTCTGA)”, the “recombinant barcode read abundance (log10)” value was found to be 0.171.

Turning to “CGTACCTCTTGGGTTCTAACCTGTTGCTC (site CGTACCTCTTA)”, the “recombinant barcode read abundance (log10)” value amounted to 0.0752.

In the case of “CGTACCTCTTGGGTTCTAACCTGTTGCTG (site CGTACCTCTAA)”, the “recombinant barcode read abundance (log10)” value amounted to 0.21.

For the sequence “CGTACCTCTTGGGTTCTAACCTGTTGCTG (site CGTACCTCTCA)”, the “recombinant barcode read abundance (log10)” value is 0.164.

For the sequence “CGTACCTCTTGGGTTCTAACCTGTTGCTG (site CGTACCTCTGA)”, the “recombinant barcode read abundance (log10)” value was determined as 0.0169.

Turning to “CGTACCTCTTGGGTTCTAACCTGTTGCTG (site CGTACCTCTTA)”, the “recombinant barcode read abundance (log10)” value is 0.0203.

For the sequence “CGTAGCCCTTGGGTTCTAACCTGTTGCGG (site ACATATACTAA)”, the “recombinant barcode read abundance (log10)” value turned out to be 0.157.

For “CGTAGCCCTTGGGTTCTAACCTGTTGCGG (site CGTAGCCCTCC)”, the “recombinant barcode read abundance (log10)” value is 0.691.

As to “CGTAGGGCTTGGGTTCTAACCTGTTGCCG (site AGTAGGGCTCT)”, the “recombinant barcode read abundance (log10)” value came out at 0.103.

As to “CGTAGGGCTTGGGTTCTAACCTGTTGCCG (site CGTAGGGCTCG)”, the “recombinant barcode read abundance (log10)” value turned out to be 0.102.

For “CGTATAGCTTGGGTTCTAACCTGTTGCCT (site CGTATAGCTAG)”, the “recombinant barcode read abundance (log10)” value was 0.285.
